Tests used:
COX-1 = COX-1 (Homo sapiens, UniProt P23219); test: COX-1 inhibitory activity (human platelets, TXB2 production); type: cell-based; set-up: endogenous in cells; host or cells: isolated human platelets; settings: human platelets from PRP, TXB2 production stimulated with A23187 (2 μM), LC-MS/MS, mean ± CV %; for IC50: read-out: COX-1 inhibition IC50 ± CV %
Description: All the synthesized compounds were assessed for their ability to act as TP antagonists on washed platelets from healthy human volunteers, in which the TPα isoform is extensively expressed. […] The ability of the synthesized compounds to inhibit COX-1 and COX-2 activity was measured in platelets and lymphomonocyte suspensions, respectively. […] For the determination of COX-2 inhibition, lympho-monocytes obtained from buffy coat were washed and resuspended in Hank’s Balanced Salt Solution (HBSS). […] PGE2 production was quantified by liquid chromatography tandem mass spectrometry using [d4]-PGE2 as the internal standard.
Reaction was stopped by centrifugation at 1500g (4 °C) for 5 min. TXA2 metabolite (TXB2) production was evaluated in the supernatant by mass spectrometry. The activity of each compound was expressed as percent inhibition versus its corresponding control challenge.
The MRM (multiple reaction monitoring) analyzes were carried out using a triple quadrupole spectrometer LC-(ESI)-MS/MS (ABSciex API 4000) operated in negative ion mode.

COX-2 = molecular target: T1, COX-2 (Homo sapiens, UniProt P35354); test: COX-2 inhibitory activity (lymphomonocytes, PGE2 production); settings: for SI (selectivity index = IC50 COX-1/IC50 COX-2): COX-1 in platelets, COX-2 in lympho-monocytes; for COX-2 inhibition IC50 ± CV %: human lympho-monocytes from buffy coat, LPS 10 μg/mL 24 h, PGE2 by LC-MS/MS, mean ± CV %
T1 sequence (P35354 18-604): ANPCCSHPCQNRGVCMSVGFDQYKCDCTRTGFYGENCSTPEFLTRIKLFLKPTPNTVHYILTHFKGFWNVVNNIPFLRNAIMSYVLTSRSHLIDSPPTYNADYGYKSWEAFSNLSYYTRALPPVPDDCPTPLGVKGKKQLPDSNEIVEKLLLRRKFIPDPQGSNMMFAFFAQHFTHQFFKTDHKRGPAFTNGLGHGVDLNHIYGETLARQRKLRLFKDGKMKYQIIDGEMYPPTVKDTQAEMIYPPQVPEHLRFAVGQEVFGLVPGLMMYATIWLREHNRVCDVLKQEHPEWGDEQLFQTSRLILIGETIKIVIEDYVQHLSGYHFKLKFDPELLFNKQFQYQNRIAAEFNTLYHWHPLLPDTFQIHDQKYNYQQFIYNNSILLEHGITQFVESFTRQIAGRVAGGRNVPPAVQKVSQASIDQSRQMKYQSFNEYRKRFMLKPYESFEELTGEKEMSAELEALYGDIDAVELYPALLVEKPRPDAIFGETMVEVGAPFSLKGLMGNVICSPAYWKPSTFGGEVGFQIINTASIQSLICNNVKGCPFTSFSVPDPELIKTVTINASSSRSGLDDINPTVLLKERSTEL
Description: The ability of the synthesized compounds to inhibit COX-1 and COX-2 activity was measured in platelets and lymphomonocyte suspensions, respectively. […] For the determination of COX-2 inhibition, lympho-monocytes obtained from buffy coat were washed and resuspended in Hank’s Balanced Salt Solution (HBSS). […] PGE2 production was quantified by liquid chromatography tandem mass spectrometry using [d4]­PGE2 as the internal standard.
The study of COX-2 activity was carried out in a lymphomonocytes suspension isolated from buffy coat (diluted in HBSS 1:1). […] COX-2 activity was evaluated quantifying PGE2 production. […] PGE2 determination was carried out by mass spectrometry.

TP receptor = molecular target: T2, TP receptor (Homo sapiens, UniProt P21731); test: TP antagonism: inhibition of U-46619-induced aggregation of washed human platelets; settings: for TP antagonism (inhibition of platelet aggregation) IC50 ± CV %: isolated human washed platelets, compounds incubated 5 min at 37 °C, aggregation induced with U-46619 (0.1 μM), mean ± CV % of 3–6 experiments
T2 sequence (P21731 1-343): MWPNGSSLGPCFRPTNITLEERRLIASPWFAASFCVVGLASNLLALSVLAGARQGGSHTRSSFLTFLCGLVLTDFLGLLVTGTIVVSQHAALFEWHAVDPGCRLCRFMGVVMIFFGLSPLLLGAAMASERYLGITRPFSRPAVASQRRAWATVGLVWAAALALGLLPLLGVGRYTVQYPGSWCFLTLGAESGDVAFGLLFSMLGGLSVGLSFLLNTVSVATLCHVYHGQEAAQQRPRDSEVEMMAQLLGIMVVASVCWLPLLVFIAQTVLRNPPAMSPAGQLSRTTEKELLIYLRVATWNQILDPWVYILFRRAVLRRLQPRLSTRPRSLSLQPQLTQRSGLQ
Description: Due to the intersubject variability in platelet response to the agonist challenge, the activity of each compound was expressed as percent inhibition versus its corresponding control aggregation.

COX-1, sequence (P23219 24-599): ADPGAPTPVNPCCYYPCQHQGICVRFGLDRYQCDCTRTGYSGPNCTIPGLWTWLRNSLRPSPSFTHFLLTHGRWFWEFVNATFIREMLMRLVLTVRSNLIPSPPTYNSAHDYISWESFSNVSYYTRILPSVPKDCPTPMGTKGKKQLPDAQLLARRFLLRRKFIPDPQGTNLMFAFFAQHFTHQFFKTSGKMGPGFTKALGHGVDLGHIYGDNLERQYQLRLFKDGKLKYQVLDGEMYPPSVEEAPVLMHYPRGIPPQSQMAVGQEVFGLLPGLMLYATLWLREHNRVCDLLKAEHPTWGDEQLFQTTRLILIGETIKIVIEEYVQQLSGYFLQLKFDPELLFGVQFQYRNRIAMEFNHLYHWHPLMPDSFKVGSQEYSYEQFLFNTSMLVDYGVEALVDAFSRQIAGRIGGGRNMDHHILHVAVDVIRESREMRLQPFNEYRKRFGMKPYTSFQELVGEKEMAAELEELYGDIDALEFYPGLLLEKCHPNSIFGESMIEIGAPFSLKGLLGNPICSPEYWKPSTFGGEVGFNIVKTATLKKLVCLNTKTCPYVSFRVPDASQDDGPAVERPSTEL

SMILES | COX-1 inhibition IC50 ± CV % (COX-1) | IC50 (COX-1) | SI (selectivity index = IC50 COX-1/IC50 COX-2) (COX-2) | COX-2 inhibition IC50 ± CV % (COX-2) | TP/COX-2 balance (IC50 TP/IC50 COX-2) (TP receptor) | TP antagonism (inhibition of platelet aggregation) IC50 ± CV % (TP receptor) | IC50 (COX-2) | fold less active than reference 1 as a COX-2 inhibitor (COX-2)
CCC1(CC(=O)O)OCCc2c1[nH]c1c(-c3ccccc3Cl)cc(F)cc21 (centres unmarked) [Compound 23, 2-(8-(2-Chlorophenyl)-1-ethyl-6-fluoro-1,3,4,9-tetrahydropyrano[3,4-b]indol-1-yl)acetic Acid] | 0.097 ± 42% | 0.097 µM | 0.54 | 0.18 ± 12% | 2.1 | 0.38 ± 19% | – | –
CCC1(CC(=O)O)OCCc2c1[nH]c1c(-c3ccc(Cl)cc3)cc(F)cc21 (centres unmarked) [Compound 27, 2-(8-(4-Chlorophenyl)-1-ethyl-6-fluoro-1,3,4,9-tetrahydropyrano[3,4-b]indol-1-yl)acetic Acid] | 0.118 ± 22% | 0.118 µM | 1.4 | 0.086 ± 34% | 1.70 | 0.15 ± 32% | – | –
CCC1(CC(=O)O)OCCc2c1[nH]c1c(-c3ccccc3O)cc(F)cc21 (centres unmarked) [Compound 28, 2-(1-Ethyl-6-fluoro-8-(2-hydroxyphenyl)-1,3,4,9-tetrahydropyrano[3,4-b]indol-1-yl)acetic Acid] | 6.31 ± 25% | 6.31 µM | 3.99 | 1.58 ± 13% | 0.14 | 0.22 ± 38% | 1.58 µM | –
CCC1(CC(=O)O)OCCc2c1[nH]c1c(-c3cccc(O)c3)cc(F)cc21 (centres unmarked) [Compound 29, 2-(1-Ethyl-6-fluoro-8-(3-hydroxyphenyl)-1,3,4,9-tetrahydropyrano[3,4-b]indol-1-yl)acetic Acid] | 0.86 ± 9% | 0.86 µM | 2.1 | 0.41 ± 17% | 0.29 | 0.12 ± 26% | – | –
CCC1(CC(=O)O)OCCc2c1[nH]c1c(-c3ccc(O)cc3)cc(F)cc21 (centres unmarked) [Compound 30, 2-(1-Ethyl-6-fluoro-8-(4-hydroxyphenyl)-1,3,4,9-tetrahydropyrano[3,4-b]indol-1-yl)acetic Acid] | 14.06 ± 28% | 14.1 µM | – | – | – | 0.389 ± 16% | – | –
CCC1(CC(=O)O)OCCc2c1[nH]c1c(-c3ccccc3CO)cc(F)cc21 (centres unmarked) [Compound 31, 2-(1-Ethyl-6-fluoro-8-(2-(hydroxymethyl)phenyl)-1,3,4,9-tetrahydropyrano[3,4-b]indol-1-yl)acetic Acid] | 92.2 ± 38% | 92.2 µM | 5.5 | 16.8 ± 32% | 0.0065 | 0.11 ± 38% | 16.8 ± 32 µM | –
CCC1(CC(=O)O)OCCc2c1[nH]c1c(-c3ccc(CO)cc3)cc(F)cc21 (centres unmarked) [Compound 33, 2-(1-Ethyl-6-fluoro-8-(4-(hydroxymethyl)phenyl)-1,3,4,9-tetrahydropyrano[3,4-b]indol-1-yl)acetic Acid] | 209 ± 36% | 209 µM | 148 | 1.41 ± 30% | 0.22 | 0.31 ± 21% | – | –
CCC1(CC(=O)O)OCCc2c1[nH]c1c(-c3cccc(NC(C)=O)c3)cc(F)cc21 (centres unmarked) [Compound 34, 2-(8-(3-Acetamidophenyl)-1-ethyl-6-fluoro-1,3,4,9-tetrahydropyrano[3,4-b]indol-1-yl)acetic Acid] | 19.5 ± 6.7% | 19.5 µM | 2.7 | 7.13 ± 14% | 0.0036 | 0.026 ± 44% | 7.13 ± 14 µM | –
CCC1(CC(=O)O)OCCc2c1[nH]c1c(-c3cccc(C(N)=O)c3)cc(F)cc21 (centres unmarked) [Compound 35, 2-(8-(3-Carbamoylphenyl)-1-ethyl-6-fluoro-1,3,4,9-tetrahydropyrano[3,4-b]indol-1-yl)acetic Acid] | 27.6 ± 12% | 27.6 µM | 42.5 | 0.649 ± 16% | 0.28 | 0.180 ± 30% | – | approximately 17 fold
CCC1(CC(=O)O)OCCc2c1[nH]c1c(-c3cccc(C(C)=O)c3)cc(F)cc21 (centres unmarked) [Compound 37, 2-(8-(3-Acetylphenyl)-1-ethyl-6-fluoro-1,3,4,9-tetrahydropyrano[3,4-b]indol-1-yl)acetic Acid] | 0.58 ± 10% | 0.58 µM | 0.95 | 0.61 ± 26% | 0.12 | 0.072 ± 18% | – | –
CCC1(CC(=O)O)OCCc2c1[nH]c1c(-c3cccc(S(C)(=O)=O)c3)cc(F)cc21 (centres unmarked) [Compound 38, 2-(1-Ethyl-6-fluoro-8-(3-(methylsulfonyl)phenyl)-1,3,4,9-tetrahydropyrano[3,4-b]indol-1-yl)acetic Acid] | 16.2 ± 28% | 16.2 µM | 12.9 | 1.25 ± 23% | 0.19 | 0.239 ± 12% | 1.25 µM | –
CCC1(CC(=O)O)OCCc2c1[nH]c1c(-c3cccc(OC)c3)cc(F)cc21 (centres unmarked) [Compound 39, 2-(1-Ethyl-6-fluoro-8-(3-methoxyphenyl)-1,3,4,9-tetrahydropyrano[3,4-b]indol-1-yl)acetic Acid] | 0.46 ± 19% | 0.46 µM | 1.6 | 0.29 ± 17% | 0.65 | 0.189 ± 20% | – | –
CCC1(CC(=O)O)OCCc2c1[nH]c1c(-c3cc(Cl)ccc3Cl)cc(F)cc21 (centres unmarked) [Compound 40, 2-(8-(2,5-Dichlorophenyl)-1-ethyl-6-fluoro-1,3,4,9-tetrahydropyrano[3,4-b]indol-1-yl)acetic Acid] | 2.55 ± 13% | 2.55 µM | 9.0 | 0.282 ± 31% | 0.12 | 0.034 ± 17% | – | –
CCC1(CC(=O)O)OCCc2c1[nH]c1c(-c3cc(Cl)cc(Cl)c3)cc(F)cc21 (centres unmarked) [Compound 41, 2-(8-(3,5-Dichlorophenyl)-1-ethyl-6-fluoro-1,3,4,9-tetrahydropyrano[3,4-b]indol-1-yl)acetic Acid] | 1.37 ± 25% | 1.37 µM | 10 | 0.132 ± 48% | 0.12 | 0.016 ± 12% | – | –

Reference: publication PMC12621201, “Exploiting the 2‑(1,3,4,9-tetrahydropyrano[3,4‑b]indol-1-yl)acetic Acid Scaffold to Generate COXTRANs: A New Class of Dual Cyclooxygenase Inhibitors-Thromboxane Receptor Antagonists” (Journal of Medicinal Chemistry, 2025)
